Our source for the Ki values is BindingDB's records for patent US9868748 (Vitae Pharmaceuticals, 2018).

This experiment has as its target T1, Nuclear receptor ROR-gamma (Homo sapiens, UniProt P51449).
T1 sequence (P51449 whole entry): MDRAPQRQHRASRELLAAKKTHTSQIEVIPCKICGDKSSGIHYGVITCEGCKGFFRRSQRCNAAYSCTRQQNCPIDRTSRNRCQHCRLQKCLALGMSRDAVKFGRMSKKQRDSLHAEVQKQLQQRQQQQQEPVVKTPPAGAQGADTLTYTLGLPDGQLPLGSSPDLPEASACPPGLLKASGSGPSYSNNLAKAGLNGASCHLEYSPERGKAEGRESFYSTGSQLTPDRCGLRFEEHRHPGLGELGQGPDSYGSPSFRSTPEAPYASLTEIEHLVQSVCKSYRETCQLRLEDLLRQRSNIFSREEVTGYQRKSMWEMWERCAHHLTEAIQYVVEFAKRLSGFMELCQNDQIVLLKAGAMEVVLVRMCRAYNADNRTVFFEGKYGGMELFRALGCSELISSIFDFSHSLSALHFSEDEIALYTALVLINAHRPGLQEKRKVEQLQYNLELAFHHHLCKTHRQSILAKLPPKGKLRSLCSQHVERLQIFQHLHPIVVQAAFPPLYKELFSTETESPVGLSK
As to the kind of experiment: Binding Assay. The procedure:
Compounds of the present invention were tested for ability to bind to RORγ in a cell-free competition assay with commercially available radio-ligand (RL), 25-hydroxy [26,27-3H] cholesterol (PerkinElmer, Cat. # NET674250UC), for a ligand binding site on a recombinant RORγ Ligand Binding Domain (LBD) protein expressed as a 6×His-Glutathione-S-Transferase (GST) fusion ( 6×His disclosed as SEQ ID NO: 2). The assay was performed in 96-well SPA plates (PerkinElmer, Cat. #1450-401) in 50 mM HEPES buffer, pH 7.4, containing 150 mM NaCl, 5 mM MgCl2, 10% (v/v) glycerol, 2 mM CHAPS, 0.5 mM β-octylglucopyranoside and 5 mM DTT. Tested compounds were dissolved in DMSO, and semi-log (3.162×) serial dilutions of the compounds were prepared in the same solvent. Two μL of the DMSO solutions were mixed with 28 μL of 8.6 nM 25-hydroxy [26,27-3H] cholesterol and 50 μL of 24 nM RORγ LBD. […] SPA signal for tritium beta radiation was registered on PerkinElmer Microbeta plate reader. Percent inhibition values were calculated based on the high signal obtained with DMSO control and the low signal observed with 10 μM standard RORγ inverse agonist T0901317 (SigmaAldrich, Cat. # T2320). The percent inhibition vs. concentration data were fit into a four-parameter model, and […] values were calculated from the fit as the concentrations corresponding to the inflection points on the dose-response curves.

What is called Ki is a dissociation constant, usually derived from enzyme kinetics or from competition with a known ligand. Lower therefore signals a stronger hold on the target. Turning to `CCS(=O)(=O)c1ccc(CC(=O)Nc2nc3c(s2)CN(CC2CC[C@@H](C(F)(F)F)N(C)C2)[C@H]3C(C)C)cc1` (stereo partly specified) [US9868748, I-A30], the Ki is less than 0.1 µM.
